The term IC50 denotes the concentration that inhibits the measured activity by half.

IC50 data for 23 molecules are collected here from patent US20260062443A1 (ALEXION PHARMACEUTICALS, INC., priority 2022, published 2026).

This assay addresses T1, Human complement C1s enzyme (Homo sapiens, UniProt P09871).
T1 sequence (P09871 438-688 limits assumed): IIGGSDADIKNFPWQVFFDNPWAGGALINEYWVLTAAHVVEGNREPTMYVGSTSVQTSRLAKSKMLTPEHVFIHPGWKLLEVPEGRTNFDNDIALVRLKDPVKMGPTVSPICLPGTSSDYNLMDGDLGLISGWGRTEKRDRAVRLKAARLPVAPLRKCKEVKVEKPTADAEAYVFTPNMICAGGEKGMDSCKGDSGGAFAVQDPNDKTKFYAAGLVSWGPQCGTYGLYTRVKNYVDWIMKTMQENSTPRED
T1 sequence (P09871 16-437 partner limits assumed): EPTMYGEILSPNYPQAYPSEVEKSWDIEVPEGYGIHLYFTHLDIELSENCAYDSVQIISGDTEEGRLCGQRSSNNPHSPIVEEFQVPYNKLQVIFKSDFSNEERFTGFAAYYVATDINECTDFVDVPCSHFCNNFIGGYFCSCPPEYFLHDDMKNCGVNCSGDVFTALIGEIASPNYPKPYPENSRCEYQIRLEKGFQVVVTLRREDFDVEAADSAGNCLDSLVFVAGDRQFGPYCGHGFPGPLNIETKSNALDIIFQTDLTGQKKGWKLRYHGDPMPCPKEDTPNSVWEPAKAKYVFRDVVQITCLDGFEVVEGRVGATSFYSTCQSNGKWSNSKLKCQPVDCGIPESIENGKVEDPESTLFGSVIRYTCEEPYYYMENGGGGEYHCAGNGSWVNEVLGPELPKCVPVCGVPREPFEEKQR
The assay is described as follows: Human C1s enzyme assay. Type of assay: biochemical. Conditions: human complement C1s enzyme 1.16 nM, substrate Z-L-Lys-SBzl 100 μM, 5 min preincubation; read-out: IC50 (Stars), C1s Inhibiting Activity. Summed up: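 IC50 from nonlinear regression of reaction rates versus compound concentration, with rates taken from A405 recorded at 30 s intervals over 30 min after adding 100 μM Z-L-Lys-SBzl plus 100 μM DTNB. Enzyme was human C1s purified from serum, 1.16 nM, given 5 min compound preincubation at room temperature, pH 7.5 Tris/1 M NaCl.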

`C[C@H](NC(=O)[C@@H]1C[C@@H](OC(F)F)CN1C(=O)CNC(=O)c1ccc(Oc2ccccc2)cc1)c1cc2cnccc2[nH]1` [Compound 22, (2S,4R)-N-((S)-1-(1H-pyrrolo[3,2-c]pyridin-2-yl)ethyl)-4-(difluoromethoxy)-1-((4-phenoxybenzoyl)glycyl) pyrrolidine-2-carboxamide]: the IC50 is 100 to 1000 nM. In the case of `O=C(NCC(=O)N1CC2(C[C@H]1C(=O)NCc1cc3cc(Br)ccc3[nH]1)OCCO2)c1ccc2c(c1)Oc1ccccc1S2` [Compound 55, (S)-N-((5-bromo-1H-indol-2-yl)methyl)-7-((phenoxathiine-3-carbonyl)glycyl)-1,4-dioxa-7-azaspiro[4.4]nonane-8-carboxamide] it was over 1000 nM. Take `C[C@@]12C[C@@H]1N(C(=O)CNC(=O)c1ccc(Oc3ccccc3)cc1)[C@H](C(=O)NCc1ccc(Cl)cc1)C2` [Compound 373, (1S,3S,5S)-N-(4-chlorobenzyl)-5-methyl-2-((4-phenoxybenzoyl)glycyl)-2-azabicyclo[3.1.0]hexane-3-carboxamide]: the IC50 was over 1000 nM. With `O=C(NCC(=O)N1CC2(C[C@H]1C(=O)NCc1cc3cnccc3[nH]1)OCCO2)c1ccc2oc3ccccc3c2c1` [Compound 35, (S)-N-((1H-pyrrolo[3,2-c]pyridin-2-yl)methyl)-7-((dibenzo[b,d]furan-2-carbonyl)glycyl)-1,4-dioxa-7-azaspiro[4.4]nonane-8-carboxamide], the IC50 was under 100 nM. In the case of `C[C@@H](NC(=O)[C@@H]1C[C@@H](c2ccccc2)CN1C(=O)CNC(=O)c1ccc2c(c1)Oc1ccccc1S2)c1cc2cnccc2[nH]1` [Compound 169, (2S,4S)-N-((R)-1-(1H-pyrrolo[3,2-c]pyridin-2-yl)ethyl)-1-((phenoxathiine-3-carbonyl)glycyl)-4-phenylpyrrolidine-2-carboxamide] it was under 100 nM; in that of `C[C@@H](NC(=O)[C@@H]1CC2(CN1C(=O)CNC(=O)c1ccc(-c3ccc(F)cc3F)cc1)OCCO2)c1cc2cnccc2[nH]1` [Compound 68, (S)-N-((R)-1-(1H-pyrrolo[3,2-c]pyridin-2-yl)ethyl)-7-((2′,4′-difluoro-[1,1′-biphenyl]-4-carbonyl)glycyl)-1,4-dioxa-7-azaspiro[4.4]nonane-8-carboxamide], 100 to 1000 nM; in that of `O=C(NCC(=O)N1C[C@H](OC(F)F)C[C@H]1C(=O)NCc1cc2cnccc2[nH]1)c1cccc(N2Cc3ccccc3C2)c1` [Compound 378, (2S,4R)-N-((1H-pyrrolo[3,2-c]pyridin-2-yl)methyl)-4-(difluoromethoxy)-1-((3-(isoindolin-2-yl)benzoyl)glycyl)pyrrolidine-2-carboxamide], under 100 nM. In the case of `O=C(NCC(=O)N1CC2(C[C@H]1C(=O)NCc1cc3cccnc3[nH]1)OCCO2)c1ccc2c(c1)-c1ccccc1C2(F)F` [Compound 10, (S)-N-((1H-pyrrolo[2,3-b]pyridin-2-yl)methyl)-7-((9,9-difluoro-9H-fluorene-3-carbonyl)glycyl)-1,4-dioxa-7-azaspiro[4.4]nonane-8-carboxamide] it was over 1000 nM; in that of `C[C@@H](NC(=O)[C@@H]1C[C@@H](OC(F)F)CN1C(=O)CN1Cc2cc(Br)ccc2C1=O)c1cc2cnccc2[nH]1` [Compound 100, (2S,4R)-N-((R)-1-(1H-pyrrolo[3,2-c]pyridin-2-yl)ethyl)-1-(2-(5-bromo-1-oxoisoindolin-2-yl)acetyl)-4-(difluoromethoxy)pyrrolidine-2-carboxamide], 100 to 1000 nM. In the case of `O=C(NCC(=O)N1C[C@H](OC(F)F)C[C@H]1C(=O)NCc1ccc2[nH]ccc2n1)c1ccc2c(c1)Oc1ccccc1S2` [Compound 230, (2S,4R)-N-((1H-pyrrolo[3,2-b]pyridin-5-yl)methyl)-4-(difluoromethoxy)-1-((phenoxathiine-3-carbonyl)glycyl)pyrrolidine-2-carboxamide] it was over 1000 nM; in that of `O=C(NCC(=O)N1C[C@H](OC(F)F)C[C@H]1C(=O)NCc1cc2cnccc2[nH]1)c1cccc(Oc2cc(F)ccc2F)c1` [Compound 295, (2S,4R)-N-((1H-pyrrolo[3,2-c]pyridin-2-yl)methyl)-4-(difluoromethoxy)-1-((3-(2,5-difluorophenoxy)benzoyl)glycyl) pyrrolidine-2-carboxamide], under 100 nM. In the case of `C[C@@H](NC(=O)[C@@H]1CC2(CN1C(=O)CNC(=O)c1ccc3oc4ccccc4c3c1)OCCO2)c1cc2cnccc2[nH]1` [Compound 300, (S)-N-((R)-1-(1H-pyrrolo[3,2-c]pyridin-2-yl)ethyl)-7-((dibenzo[b,d]furan-2-carbonyl)glycyl)-1,4-dioxa-7-azaspiro[4.4]nonane-8-carboxamide], the IC50 is under 100 nM. As for `O=C(Cc1ccc(Cl)c(Cl)c1)NCC(=O)N1CC2(C[C@H]1C(=O)NCc1cc3cnccc3[nH]1)OCCO2` [Compound 280, (S)-N-((1H-pyrrolo[3,2-c]pyridin-2-yl)methyl)-7-((2-(3,4-dichlorophenyl)acetyl)glycyl)-1,4-dioxa-7-azaspiro[4.4]nonane-8-carboxamide], the concentration for half-maximal inhibition (IC50) fell in the range of 100 to 1000 nM. In the case of `O=C(NCC(=O)N1C[C@H](OC(F)F)C[C@H]1C(=O)O)c1ccc(Oc2ccccc2)cc1` [Compound 118, (2S,4R)-4-(difluoromethoxy)-1-((4-phenoxybenzoyl)glycyl) pyrrolidine-2-carboxylic acid] it was over 1000 nM. Consider `O=C(NCC(=O)N1C[C@H](OC(F)F)C[C@H]1C(=O)NCc1cc2cnccc2[nH]1)c1cc(-c2ccc(Cl)cc2)cs1` [Compound 377, (2S,4R)-N-((1H-pyrrolo[3,2-c]pyridin-2-yl)methyl)-1-((4-(4-chlorophenyl)thiophene-2-carbonyl)glycyl)-4-(difluoromethoxy)pyrrolidine-2-carboxamide], for which the IC50 is under 100 nM.

`CC1(O)c2ccccc2-c2cc(C(=O)NCC(=O)N3C[C@H](OC(F)F)C[C@H]3C(=O)NCc3cc4cnccc4[nH]3)ccc21` (stereo partly drawn) [Compound 314, (2S,4R)-N-((1H-pyrrolo[3,2-c]pyridin-2-yl)methyl)-4-(difluoromethoxy)-1-((9-hydroxy-9-methyl-9H-fluorene-3-carbonyl)glycyl) pyrrolidine-2-carboxamide]: the IC50 was under 100 nM. On to `C[C@@H](NC(=O)[C@@H]1C[C@]2(C)C[C@@H]2N1C(=O)CNC(=O)c1ccc2c(c1)Oc1ccccc1S2)c1cc2cnccc2s1` [Compound 231, (1S,3S,5S)-5-methyl-2-((phenoxathiine-3-carbonyl)glycyl)-N-((R)-1-(thieno[3,2-c]pyridin-2-yl)ethyl)-2-azabicyclo[3.1.0]hexane-3-carboxamide], for which the IC50 was under 100 nM. To `C[C@@]12C[C@@H]1N(C(=O)CNC(=O)c1cccc(Oc3ccccc3)c1)[C@H](C(=O)NCc1cc3cnccc3[nH]1)C2` [Compound 152, (1S,3S,5S)-N-((1H-pyrrolo[3,2-c]pyridin-2-yl)methyl)-5-methyl-2-((3-phenoxybenzoyl)glycyl)-2-azabicyclo[3.1.0]hexane-3-carboxamide] belongs under 100 nM. `O=C(NCC(=O)N1CC2(C[C@H]1C(=O)NCc1cc3cncc(F)c3[nH]1)OCCO2)c1ccc2c(c1)Oc1ccccc1S2` [Compound 45, (S)-N-((7-fluoro-1H-pyrrolo[3,2-c]pyridin-2-yl)methyl)-7-((phenoxathiine-3-carbonyl)glycyl)-1,4-dioxa-7-azaspiro[4.4]nonane-8-carboxamide]: the IC50 is over 1000 nM. To `O=C(NCC(=O)N1CC2(C[C@H]1C(=O)NCc1cc3ccncn3c1)OCCO2)c1ccc2c(c1)Oc1ccccc1S2` [Compound 276, (S)-7-((phenoxathiine-3-carbonyl)glycyl)-N-(pyrrolo[1,2-c]pyrimidin-6-ylmethyl)-1,4-dioxa-7-azaspiro[4.4]nonane-8-carboxamide] belongs over 1000 nM. Take `O=C(NCC(=O)N1CC2(C[C@H]1C(=O)O)OCCO2)c1ccc(Oc2ccccc2)cc1` [Compound 119, (S)-7-((4-phenoxybenzoyl)glycyl)-1,4-dioxa-7-azaspiro[4.4]nonane-8-carboxylic acid]: the 50% inhibitory concentration (IC50) was over 1000 nM.

As to `O=C(NCC(=O)N1C[C@H](OC(F)F)C[C@H]1C(=O)NCc1ccc2cc[nH]c2n1)c1ccc2c(c1)Oc1ccccc1S2` [Compound 229, (2S,4R)-N-((1H-pyrrolo[2,3-b]pyridin-6-yl)methyl)-4-(difluoromethoxy)-1-((phenoxathiine-3-carbonyl)glycyl)pyrrolidine-2-carboxamide], the IC50 is over 1000 nM.

With `Cn1c(C2(NC(=O)[C@@H]3C[C@]4(C)C[C@@H]4N3C(=O)CNC(=O)CCCOc3ccccc3)CC2)nc2ccncc21` [Compound 65, (1S,3S,5S)-5-methyl-N-(1-(3-methyl-3H-imidazo[4,5-c]pyridin-2-yl)cyclopropyl)-2-((4-phenoxybutanoyl)glycyl)-2-azabicyclo[3.1.0]hexane-3-carboxamide], the IC50 was over 1000 nM.
